# Laboratory results reported in patent US12653799B2, “Compositions and methods for treating Alzheimer's disease” (ELEANORE BENNETT CHARITABLE TRUST #2, priority 2021, dated 2026).
# Legend:
# C57BL/6 mice = experiment: Safety of intravenous PS48 over 2 weeks; type: in vivo, mouse
# Method: Finally, a series of in vivo experiments was performed to assess safety of treatment with PS48. […] Similarly, when PS48 was given by oral gavage over 2 weeks, there were no signs of toxicity by gross observation, organ specific necropsy, or weight.
# For intravenous PS48, adult male C57BL/6 mice (Charles River, n=6 per group) were fed ad libitum and dosed with PS48 or vehicle in an escalating schedule from 3-20 mg/kg IV daily; 3-10 mg/kg days 1-6, and 20 mg/kg days 7-13. Tail vein blood sugars were obtained 30, 60, and 120 minutes after every third dose.
# Liver transaminases ALT and AST, as well as muscle creatine kinase (CK), were also measured to assess possible liver toxicity and possible general tissue toxicity, respectively. A change in ALT, albeit statistically significant, was very small.
# mTOR = experiment: Downstream mTOR phosphorylation; type: cell-based; conditions: PS48 1 or 10 μM, 2-4 hrs before doxycycline
# transgenic mice = experiment: Contextual and cued fear conditioning; type: in vivo, mouse; conditions: 16-month-old Tg mice; no significant changes
# Method: Next, a series of experiments was performed to assess contextual and cued fear conditioning. 16-month-old mice WT, TG w/vehicle, and TG w/PS48 were first habituated to establish activity levels (300 sec), then presented 3 shock-tone pairings, followed by probes of contextual and cued fear memory. Prior to conditioning to the tone and foot shock, mice in all groups experienced very low levels of freezing (Baseline Freezing Day 1) (FIG. 14A) and the expected freezing to the shock (FIG. 14B).
# After the conditioning procedure, when mice were placed back in the same context but without tone or shock (Day 2), freezing was measured over 8 minutes, the last 4 minutes were quantified.
# On Day 3 the context was changed for 2 minutes (12 bins) and mice were exposed to a continuous tone (cue) used during conditioning for 8 minutes. […] Freezing % was quantified as the number of 10-sec epochs in which there was no beam break over the total number of epochs in the 4-minute period (24). […] Sec FIG. 14D.
# APP/PS-1 transgenic mice = experiment: Morris water maze in APP/PS-1 transgenic mice, PS48 via diet; type: in vivo, mouse; conditions: for time spent over the platform area, acquisition probe: TG
# Method: Next, a series of experiments was performed using a Morris water maze. WT mice fed standard diet (SD) reached the hidden platform in a shorter time compared to TG-SD mice. […] The PS48 effect was more pronounced within the standard diet condition. *p<0.05, **p<0.01, ANOVA; ^p<0.05, t-test. WT mice fed standard diet (SD) reached the hidden platform zone in a shorter distance compared to TG-SD mice. […] The PS48 effect was more pronounced within the standard diet condition. Memory acquisition for the location of the escape platform location was tested in 12-month-old APP/PS1 transgenic and littermate mice. The removed escape platform was located in the northeast quadrant of the tank. […] The 10 cm platform is indicated in the figure by the shaded circle in the upper right quadrant. The following metrics were quantified: (1) time spent swimming over the target area, (2) latency to attain the target area, (3) path length to platform, and (4) number of crossings over the area. […] Transgenic animals fed high fat diet (HFD) performed less well than those on standard diet. […] Lower latency values indicate better recall for the target location. […] Animals were retrained with the platform in the SE quadrant and probe phase conducted as before. FIGS. 13E-13H show path length taken, in cm, to first reach hidden platform. […] Similar probe results were obtained in the subsequent reversal trial. […] (±1 SEM, n=16 data points per group, *p<0.05, **p<0.01, ++p<0.001). […] The data has similar import to time spent over platform area above.
# Akt-1 = target: T1, Akt-1 (Homo sapiens, UniProt P31749); experiment: Fluorescence polarization, FAM-Aβ42 binding to Akt-1 in solution; conditions: PS48 10, 20, and 100 μM; results not shown
# T1 construct: purchased Amsbio
# T1 sequence (P31749 whole entry): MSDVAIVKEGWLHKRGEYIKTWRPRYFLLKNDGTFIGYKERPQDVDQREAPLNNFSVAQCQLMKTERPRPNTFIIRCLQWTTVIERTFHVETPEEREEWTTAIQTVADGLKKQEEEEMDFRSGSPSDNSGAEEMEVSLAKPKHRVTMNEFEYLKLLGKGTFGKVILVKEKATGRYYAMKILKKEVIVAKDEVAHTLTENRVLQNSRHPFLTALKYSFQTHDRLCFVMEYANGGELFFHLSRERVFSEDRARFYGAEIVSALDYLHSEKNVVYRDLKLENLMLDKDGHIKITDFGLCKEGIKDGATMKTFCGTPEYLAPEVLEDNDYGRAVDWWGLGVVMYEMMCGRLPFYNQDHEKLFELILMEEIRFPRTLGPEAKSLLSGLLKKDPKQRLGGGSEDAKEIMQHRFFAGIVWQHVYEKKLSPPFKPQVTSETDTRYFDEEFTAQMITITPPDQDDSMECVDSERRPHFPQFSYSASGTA
# [1] = tested on: CREB phosphorylation (pS133) in SH-SY5Y cells; experiment: Endogenous p-CREB levels in Aβ42-expressing SH-SY5Y cells; conditions: PS48 50 nM; insulin 250 ng/ml 30 min
# Method: Whole cell extracts were fractionated by Western and probed with monoclonal anti-pCREB pS133. […] All cells were stimulated with insulin 250 ng/ml for 30 min before harvest.
# [2] = tested on: Akt Ser473 phosphorylation in rat primary cortical neurons; experiment: Non-amyloid insulin resistance model (palmitate/ceramide) in primary cortical neurons; type: cell-based; conditions: palmitate 300 μM; PS48 100 nM, 24 hrs; insulin 20 nM
# Method: FIG. 1B. Non-amyloid-based insulin resistance model. Partial restoration of insulin-induced Akt activation in rat primary cortical neurons exposed to the fatty acid neurotoxin palmitate (300 μM). […] . The same result was obtained in ceramide-treated (50 μM) primary neurons (not shown); *p<0.05). Representative western blot above, n=3 experiments.
# SH-SY5Y were left undifferentiated.
# C2C12 myotubes = experiment: Cell viability (cytoprotection) in C2C12 myotubes
# Method: Cell viability as measured by MTT assay.
# Mouse C2C12 cells (ATCC) were grown in Dulbecco's modified Eagle medium (DMEM), 20% fetal bovine serum (FBS) (Invitrogen), and maintained for passage below 60% confluence. Cultures at or above 90% confluence were then differentiated in DMEM, 2% adult horse serum (DM) for 3 days before use.
# [3] = tested on: Akt phosphorylation in Aβ42-expressing SH-SY5Y cells; experiment: Akt activation in Aβ42-expressing cells (adenovirus/doxycycline, insulin-stimulated); type: cell-based
# Method: Adv TetOn and TRE-Aβ42 viruses were described previously (Magrane et al., 2005). […] Insulin (10 or 40 nM) was added in the last 20-30 min before harvest. […] Cell extracts were prepared in lysis buffer [20 mM Tris-HCl (pH 7.5), 150 mM NaCl, 1 mM EDTA, 1 mM Na3VO4, 1% NP-40, 10% Glycerol, 1 mM Na4P2O7, 1 μg/ml Leupeptin, 1 μg/ml Pepstatin A, 1 μg/ml Aprotinin, 0.1 mM phenylmethylsulfonyl fluoride, and protease inhibitor cocktail (Roche)] and were stored at −80° C. until use.
# Whole-cell extracts were used directly for western blot analysis (20˜30 μg). Extracts from cultured cells prepared in lysis buffer, were diluted into Laemmli sample buffer, heated (95° C., 10 min), cleared by centrifugation, separated on SDS-PAGE and transferred to PVDF membrane (Immobilon-P; Millipore). Membranes were blocked in TBS containing 0.3% Tween-20 and 5% (wt/vol) non-fat dry milk. After incubation with primary antibodies (18 hr at 4° C. in buffer containing 5% bovine serum albumin (BSA) and 0.05% NaN3), blots were washed and incubated in horseradish peroxidase (HRP)-conjugated secondary antibodies (1:2000 dilution; Cell Signaling). Signals were detected using ECL reagents and quantified using a Kodak Image Station 4000R.
# […]. […] […]. […] […].
smiles,measurement,setting,value
"O=C(O)/C=C(/CCc1ccc(Cl)cc1)c1ccccc1 [PS48, (Z)-5-(4-chlorophenyl)-3-phenylpent-2-enoic acid]",behavioral changes,"C57BL/6 mice; 3-20 mg/kg IV daily, 2-week trial",No behavioral changes
same,change in muscle creatine kinase (CK),C57BL/6 mice; IV daily for 14 days,no significant change
same,change in ALT,"C57BL/6 mice; IV daily for 14 days, statistically significant",very small
same,mean body weight or mean blood sugars,"C57BL/6 mice; IV, 3-20 mg/kg daily",no significant change
same,gross necropsy,"C57BL/6 mice; IV, after 14 days",no abnormalities
same,downstream mTOR substrate phosphorylation,mTOR,unchanged
same,"cue fear conditioning, freezing",transgenic mice,a trend in cue conditioning paradigm favored PS48 treatment
same,"latency to reach the hidden platform, place learning and reversal tasks","APP/PS-1 transgenic mice; PS48 orally through diet, SD and HFD, more pronounced on standard diet",tended to reduce latency
same,"time spent over the platform area, acquisition probe","APP/PS-1 transgenic mice; HFD supplemented with PS48, p<0.01 vs Tg HFD w/V",most significant improvement
same,"time spent over the platform area, acquisition probe","APP/PS-1 transgenic mice; standard diet with PS48, p<0.10 vs vehicle fed",improved in this measure
same,"path length, acquisition and reversal data combined",APP/PS-1 transgenic mice; Tg HFD group,significantly benefited
same,"latency to platform, acquisition probe",APP/PS-1 transgenic mice; Tg mice on standard or high fat diet vs vehicle controls,Results favored
same,"path length to first reach hidden platform, probe",APP/PS-1 transgenic mice; Tg on standard or HFD diet,trended improvements in the direction of WT
same,crossing numbers over removed platform location,"APP/PS-1 transgenic mice; both probe trials combined, p<0.05 vs vehicle",performed significantly better than vehicle
same,distance to zone to reach the hidden platform,"APP/PS-1 transgenic mice; dietary PS48, SD and HFD, more pronounced on standard diet",tended to reduce distance to zone
same,effect of PS48 additions on polarization signal,Akt-1,did not affect either polarization signal
same,p-CREB (pS133) levels reduced by Aβ42 expression,[1],mitigated the Aβ42 effect
same,inhibition of Akt Ser473 phosphorylation by palmitate,[2],partly reversed inhibition of Akt Ser473 phosphorylation by palmitate
same,cytoprotection,C2C12 myotubes,same cytoprotection
same,concentration at which the dose-dependent reversal became apparent,"[3]; SH-SY5Y and C2C12 myotube cell lines, p<0.01",100 nM
same,reversal of Aβ42 inhibition of insulin-stimulated Akt phosphorylation,"[3]; SH-SY5Y and C2C12 myotube data combined, PS48 100 nM and 1 μM (and 10 μM)",significantly reversed the Aβ42 effect
same,Akt activation (pT308) in β-amyloid-expressing cells,"[3]; SH-SY5Y, PS48 1 μM or insulin 100 nM added 2 hrs before doxycycline, insulin 40 nM 20 min prior to harvest",restored basal Akt activation levels
same,"basal Akt, compound alone","[3]; SH-SY5Y, PS48 1 μM, no Aβ42 induction",did not over-stimulate
same,Akt activity: phosphorylation of GSK3α/β consensus peptide by immunoprecipitated Akt (in vivo-in vitro coupled assay),"[3]; SH-SY5Y, PS48 pre-treatment 50 nM, 2 hrs before doxycycline",prevented the inhibition of peptide phosphorylation by Aβ42
